Species: Rattus norvegicus
Experiment: Open TG-GATES - Regimen: Single
Assay type: toxicity, organism-based, Sprague-Dawley
Parameters: regimen Single, gender Male, age 6 weeks
Settings: in vivo, po, 0 mg/kg, route gavage, dose level Control; for APTT / Bas / Eos / Fbg / Hb / Ht / Lym / MCH / MCHC / MCV / Mono / Neu / PT / Plat / RBC / Ret / WBC: tissue Blood; for KIDNEY_L / KIDNEY_R / KIDNEY_TOTAL: tissue Kidney; for LIVER: tissue Liver; for A/G / ALP / ALT / AST / BUN / CRE / Ca / Cl / DBIL / GLC / IP / K / LDH / Na / PL / RALB / TBIL / TC / TG / TP / gamma-GTP: tissue Plasma

Cn1c(=O)c2[nH]cnc2n(C)c1=O.O [THEOPHYLLINE]
TERMINAL_BW (3 h): 221.7 g | APTT (3 h): 22.2 s | Bas (3 h): 0% | Eos (3 h): 0.8% | Fbg (3 h): 289.8 mg/dL | Hb (3 h): 13.1 g/dL | Ht (3 h): 39.5% | Lym (3 h): 83.2% | MCH (3 h): 20.7 pg | MCHC (3 h): 33.2% | MCV (3 h): 62.5 fL | Mono (3 h): 1.8% | Neu (3 h): 13.6% | PT (3 h): 15.5 s | Plat (3 h): 119 x10_4/uL | RBC (3 h): 632.2 x10_4/ul | Ret (3 h): 8.4% | WBC (3 h): 101.2 x10_2/uL | KIDNEY_L (3 h): 1 g | KIDNEY_R (3 h): 1 g | KIDNEY_TOTAL (3 h): 2 g | LIVER (3 h): 10.3 g | A/G (3 h): 1.3 | ALP (3 h): 1309 IU/L | ALT (3 h): 43.6 IU/L | AST (3 h): 70 IU/L | BUN (3 h): 13.8 mg/dL | CRE (3 h): 0.2 mg/dL | Ca (3 h): 10.5 mg/dL | Cl (3 h): 105 meq/L | DBIL (3 h): 0 mg/dL | GLC (3 h): 190.4 mg/dL | IP (3 h): 8.8 mg/dL | K (3 h): 4.2 meq/L | LDH (3 h): 179 IU/L | Na (3 h): 142.6 meq/L | PL (3 h): 135.8 mg/dL | RALB (3 h): 3 g/dL | TBIL (3 h): 0.018 mg/dL | TC (3 h): 77.4 mg/dL | TG (3 h): 49.2 mg/dL | TP (3 h): 5.3 g/dL | gamma-GTP (3 h): 1.2 IU/L | TERMINAL_BW (6 h): 213.2 g | APTT (6 h): 21.5 s | Bas (6 h): 0% | Eos (6 h): 0.6% | Fbg (6 h): 300.6 mg/dL | Hb (6 h): 13.7 g/dL | Ht (6 h): 40.9% | Lym (6 h): 82.2% | MCH (6 h): 20.8 pg | MCHC (6 h): 33.4% | MCV (6 h): 62.3 fL | Mono (6 h): 2.6% | Neu (6 h): 13.2% | PT (6 h): 15.6 s | Plat (6 h): 118.7 x10_4/uL | RBC (6 h): 657.2 x10_4/ul | Ret (6 h): 7.4% | WBC (6 h): 102.6 x10_2/uL | KIDNEY_L (6 h): 1 g | KIDNEY_R (6 h): 1 g | KIDNEY_TOTAL (6 h): 1.9 g | LIVER (6 h): 9.1 g | A/G (6 h): 1.2 | ALP (6 h): 1402.8 IU/L | ALT (6 h): 39.8 IU/L | AST (6 h): 75.6 IU/L | BUN (6 h): 10.8 mg/dL | CRE (6 h): 0.1 mg/dL | Ca (6 h): 10.4 mg/dL | Cl (6 h): 105.8 meq/L | DBIL (6 h): 0 mg/dL | GLC (6 h): 183.8 mg/dL | IP (6 h): 9.3 mg/dL | K (6 h): 4.4 meq/L | LDH (6 h): 202 IU/L | Na (6 h): 142.6 meq/L | PL (6 h): 124.6 mg/dL | RALB (6 h): 2.9 g/dL | TBIL (6 h): 0.024 mg/dL | TC (6 h): 72.8 mg/dL | TG (6 h): 48.2 mg/dL | TP (6 h): 5.4 g/dL | gamma-GTP (6 h): 1 IU/L | TERMINAL_BW (9 h): 212.6 g | APTT (9 h): 22.9 s | Bas (9 h): 0% | Eos (9 h): 0.8% | Fbg (9 h): 310.2 mg/dL | Hb (9 h): 13.3 g/dL | Ht (9 h): 39.9% | Lym (9 h): 77.6% | MCH (9 h): 20.5 pg | MCHC (9 h): 33.3% | MCV (9 h): 61.6 fL | Mono (9 h): 2.4% | Neu (9 h): 18% | PT (9 h): 15.8 s | Plat (9 h): 119 x10_4/uL | RBC (9 h): 649.6 x10_4/ul | Ret (9 h): 7.5% | WBC (9 h): 79.6 x10_2/uL | KIDNEY_L (9 h): 1 g | KIDNEY_R (9 h): 1 g | KIDNEY_TOTAL (9 h): 2 g | LIVER (9 h): 8.6 g | A/G (9 h): 1.2 | ALP (9 h): 1444.4 IU/L | ALT (9 h): 35.2 IU/L | AST (9 h): 70.4 IU/L | BUN (9 h): 12.6 mg/dL | CRE (9 h): 0.2 mg/dL | Ca (9 h): 10.8 mg/dL | Cl (9 h): 105.8 meq/L | DBIL (9 h): 0 mg/dL | GLC (9 h): 188 mg/dL | IP (9 h): 9.2 mg/dL | K (9 h): 4.3 meq/L | LDH (9 h): 180.6 IU/L | Na (9 h): 140.8 meq/L | PL (9 h): 125.6 mg/dL | RALB (9 h): 3.1 g/dL | TBIL (9 h): 0.022 mg/dL | TC (9 h): 73.2 mg/dL | TG (9 h): 52.8 mg/dL | TP (9 h): 5.5 g/dL | gamma-GTP (9 h): 1 IU/L | TERMINAL_BW (24 h): 228.3 g | APTT (24 h): 21.9 s | Bas (24 h): 0% | Eos (24 h): 1% | Fbg (24 h): 291.2 mg/dL | Hb (24 h): 13.6 g/dL | Ht (24 h): 40.4% | Lym (24 h): 82.2% | MCH (24 h): 20.8 pg | MCHC (24 h): 33.7% | MCV (24 h): 61.5 fL | Mono (24 h): 2.6% | Neu (24 h): 13% | PT (24 h): 15.9 s | Plat (24 h): 115.8 x10_4/uL | RBC (24 h): 657 x10_4/ul | Ret (24 h): 6.9% | WBC (24 h): 97 x10_2/uL | KIDNEY_L (24 h): 1 g | KIDNEY_R (24 h): 1 g | KIDNEY_TOTAL (24 h): 2 g | LIVER (24 h): 10.4 g | A/G (24 h): 1.2 | ALP (24 h): 1398.8 IU/L | ALT (24 h): 40.8 IU/L | AST (24 h): 69.4 IU/L | BUN (24 h): 16.6 mg/dL | CRE (24 h): 0.2 mg/dL | Ca (24 h): 10.9 mg/dL | Cl (24 h): 106.2 meq/L | DBIL (24 h): 0 mg/dL | GLC (24 h): 193.4 mg/dL | IP (24 h): 7.7 mg/dL | K (24 h): 4.3 meq/L | LDH (24 h): 221 IU/L | Na (24 h): 143.4 meq/L | PL (24 h): 151.6 mg/dL | RALB (24 h): 3 g/dL | TBIL (24 h): 0.008 mg/dL | TC (24 h): 80.4 mg/dL | TG (24 h): 100.2 mg/dL | TP (24 h): 5.5 g/dL | gamma-GTP (24 h): 1.2 IU/L

From ChEMBL document CHEMBL3885861, “Open TG-GATES”
